Results on 15 compounds are retold here after ChEMBL document CHEMBL5113380, “Functionalized quinoxalinones as privileged structures with broad-ranging pharmacological activities” (Eur J Med Chem, 2022).

The test system of assay [1] is Escherichia coli. Description: Antibacterial activity against Escherichia coli. Type of assay: functional.
For assay [2], the system named is Staphylococcus aureus. The experiment in a line: Antibacterial activity against Staphylococcus aureus. Type of assay: functional.
For assay [3], the system named is Candida albicans. Description: Antifungal activity against Candida albicans. Type of assay: functional.
Assay [4] relates to Enterococcus faecalis. Description: Antibacterial activity against Enterococcus faecalis. Type of assay: functional.
For assay [5], the system named is Klebsiella pneumoniae. Description: Antibacterial activity against Klebsiella pneumoniae. Format: functional.
Assay [6] has as its system Aspergillus fumigatus. Description: Antifungal activity against Aspergillus fumigatus. Format: functional.
The test system of assay [7] is Mycobacterium tuberculosis. The experiment in a line: Antimycobacterial activity against Mycobacterium tuberculosis H37Rv. Type of assay: functional.
Assay [8] is described as follows: Inhibition of ALR2 (unknown origin). Further details: species or system Homo sapiens.
A short description of assay [9]: Inhibition of ALR1 (unknown origin) relative to control. The arrangement: concentration or dose not given beside the values. The settings on record: Homo sapiens; concentration not given here.
A short description of assay [10]: Antioxidant activity assessed as DPPH radical scavenging activity at 100 uM. Type of assay: functional. Background: The DPPH test is a chemical assay of radical scavenging.
The nature of assay [11]: Antioxidant activity assessed as DPPH radical scavenging activity at 50 uM. Format: functional.
Assay [12] can be described thus: Antioxidant activity assessed as DPPH radical scavenging activity at 10 uM. Type of assay: functional.
For assay [13], the system named is A549. The experiment in a line: Antiproliferative activity against human A549 cells. Type of assay: functional, cell-based.
In assay [14] the test system is HeLa. The experiment in a line: Antiproliferative activity against human HeLa cells. Format: functional, cell-based.
The test system of assay [15] is LS174T. The experiment in a line: Antiproliferative activity against human LS174T cells. Type of assay: functional, cell-based.
The test system of assay [16] is MRC5. The experiment in a line: Antiproliferative activity against human MRC5 cells. Type of assay: functional, cell-based.
The subject of assay [17] is Staphylococcus aureus. Description: Antibacterial activity against Staphylococcus aureus assessed as diameter zone of inhibition. Type of assay: functional.
In assay [18] the test system is Bacillus subtilis. Description: Antibacterial activity against Bacillus subtilis assessed as diameter zone of inhibition. Type of assay: functional.
Assay [19] has as its system Escherichia coli. The experiment in a line: Antibacterial activity against Escherichia coli assessed as diameter zone of inhibition. Type of assay: functional.
Assay [20] relates to Candida. Description: Antifungal activity against Candida species isolate 1. Format: functional.
For assay [21], the system named is Candida. Description: Antifungal activity against Candida species isolate 3. Format: functional.
In assay [22] the test system is Pichia kudriavzevii. The experiment in a line: Antifungal activity against Candida krusei. Type of assay: functional.
Assay [23] has as its system Candida parapsilosis. Description: Antifungal activity against Candida parapsilosis. Format: functional. The settings on record: Lodderomyces parapsilosis.
Assay [24] deals with Candida tropicalis. Description: Antifungal activity against Candida tropicalis. Format: functional.
The test system of assay [25] is Nakaseomyces glabratus. The experiment in a line: Antifungal activity against Candida glabrata. Format: functional.
The subject of assay [26] is HeLa 229. Description: Antiproliferative activity against human HeLa 229 cells after 72 hrs by MTT assay. Type of assay: functional, cell-based. The settings on record: HeLa 229, 72 h. On the technique in general: Formazan colour is commonly taken as a measure of viable cells.
The test system of assay [27] is NCI-H460. The experiment in a line: Antiproliferative activity against human NCI-H460 cells after 72 hrs by MTT assay. Format: functional, cell-based. Particulars: NCI-H460, 72 h.
Assay [28] relates to HCT-116. Description: Antiproliferative activity against human HCT-116 cells after 72 hrs by MTT assay. Particulars: HCT-116, 72 h. Format: functional, cell-based.
Assay [29] has as its system B16-F10. Description: Antiproliferative activity against mouse B16-F10 cells after 72 hrs by MTT assay. Format: functional, cell-based. The settings on record: B16-F10, 72 h.
For assay [30], the target named is T1, Glutamate receptor ionotropic AMPA (Homo sapiens, UniProt P42261+P42262+P42263+P48058). Description: Displacement of [3H]AMPA from AMPA receptor (unknown origin). Type of assay: protein-complex assay. (Loss of bound radioactivity is the signal in a displacement assay; it reports binding, not function.)
A short description of assay [31]: Displacement of [3H]glycine from AMPA receptor (unknown origin). Format: protein-complex assay, Homo sapiens.
For assay [32], the target named is T1, Glutamate receptor ionotropic AMPA. Description: Displacement of [3H]kainic acid from AMPA receptor (unknown origin). Format: protein-complex assay.
For assay [33], the target named is Glutamate [NMDA] receptor. Description: Displacement of [3H]MK-801 from NMDA receptor (unknown origin). Type of assay: protein-complex assay, Homo sapiens.
Assay [34] is described as follows: Antioxidant activity assessed as DPPH radical scavenging activity. Type of assay: functional. The settings on record: read-out: IC50.
Assay [35] deals with Candida. The experiment in a line: Antifungal activity against Candida species isolate 2. Format: functional.
In assay [36] the test system is Pyricularia grisea. Description: Antifungal activity against Magnaporthe grisea GD08-T19 at 50 ug/ml. Format: functional. The settings on record: dose 50 µg/ml.
Assay [37] deals with Pyricularia grisea. Description: Antifungal activity against Magnaporthe grisea GD08-T19 assessed as diameter zone of inhibition. Type of assay: functional.
Assay [38] has as its system Pseudomonas aeruginosa. The experiment in a line: Antibacterial activity against Pseudomonas aeruginosa. Format: functional.
In assay [39] the test system is Staphylococcus aureus. Description: Antibacterial activity against methicillin-resistant Staphylococcus aureus. Format: functional.

In brackets after ≈: the same amount, converted by molar mass.

A word on the MIC: it is the smallest concentration in the dilution series that meets the test's criterion for growth inhibition. Regarding `C/C(=N\NC(=O)Cn1c(=O)c(C)nc2ccccc21)c1cccnc1`, the minimal inhibitory concentration (MIC) worked out at 125 µg/mL (≈ 373 µM) in [1]; 250 µg/mL (≈ 745 µM) in [2]; 16.1 µg/mL (≈ 47.9 µM) in assay [3]; 16.1 µg/mL (≈ 47.9 µM) in assay [4]; 125 µg/mL (≈ 373 µM) in assay [5]; 8.06 µg/mL (≈ 24 µM) in assay [6]. The MIC in [7] was 25 µg/mL (≈ 74.5 µM).

Usually IC50 stands for the midpoint of a concentration-inhibition curve. The term inhibition denotes the share of the control response that was lost under treatment. In [8], `O=C(O)Cn1c(=O)c(/C=C/c2ccc(O)c(O)c2)nc2ccc(O)cc21` gave an IC50 of 0.102 µM. In assay [9], this compound had an inhibition of 42.1%. In addition, the Activity in [10] was 96.2%; in assay [11], 82.1%; in assay [12], 70.5%.

For the compound `C=C(C)CCC(=O)/C=C1/Nc2ccccc2NC1=O`, the IC50 in [13] turned out to be 86.2 µM; in assay [14], 25.1 µM; in [15], 33.5 µM; in [16], 174 µM.

With `COc1ccc(/C(C)=N/NC(=O)Cn2c(=O)c(C)nc3ccccc32)cc1`, the minimal inhibitory concentration (MIC) in assay [1] was found to be 125 µg/mL (≈ 343 µM); in [2], 62.5 µg/mL (≈ 172 µM); in assay [3], 250 µg/mL (≈ 686 µM); in assay [4] it was 131 µg/mL (≈ 360 µM); in [5] it was 125 µg/mL (≈ 343 µM); in assay [6], 8.06 µg/mL (≈ 22.1 µM). The compound also returned an MIC in assay [7] of 25 µg/mL (≈ 68.6 µM).

`O=C(CC1=NC2CCCCC2NC1=O)NNC(=S)Nc1ccccc1` (stereo not drawn): the “diameter of the inhibition zone (DIZ)” value in [17] was 16 mm; in assay [18], 18 mm; in assay [19], 12 mm.

As to `O=c1[nH]c2cc(C(F)(F)F)ccc2nc1CBr`, the MIC in [2] was 62.5 µg/mL (≈ 204 µM); in assay [3], above 125 µg/mL; in assay [20] it was 62.5 µg/mL (≈ 204 µM); in [21], below 3.5 µg/mL; in assay [22] it was 125 µg/mL (≈ 407 µM); in assay [23], above 125 µg/mL. The MIC in assay [24] was 125 µg/mL (≈ 407 µM); in [25], above 125 µg/mL.

As to `O=c1[nH]c2ccccc2nc1/C=C/c1ccccc1Br`, the 50% inhibitory concentration (IC50) in [26] was above 50 µM; in assay [27] it was 9.62 µM; in assay [28], 12.3 µM; in assay [29], 7.61 µM.

A word on the Ki: it is a measure of affinity in units of concentration, obtained from inhibition or displacement. Consider `O=C(O)c1cc2c3cc(Cl)c(Cl)cc3[nH]c(=O)n2n1`, for which the values for the Ki in assay [30] and in assay [31] were 2.4 µM and 0.16 µM, respectively. Moreover, the results for the IC50 in [32] and in [33] were 41 µM and 0.89 µM, respectively.

With `O=c1c(/C=C/c2ccc(O)c(O)c2)nc2ccccc2n1-c1cnn(O)c1`, the IC50 amounted to 20.9 µM in [34] and 0.148 µM in assay [8]. The compound also came in with an inhibition in assay [9] of 30.5%. For the same compound, the figures for the Activity in [10], in assay [11] and in assay [12] were 95.6%, 72.5% and 40.8%, respectively.

Turning to `O=c1[nH]c2ccc(C(F)(F)F)cc2nc1C(F)(F)F`, the minimum inhibitory concentration (MIC) is 8 µg/mL (≈ 28.4 µM) in assay [3]; 125 µg/mL (≈ 443 µM) in assay [20]; 125 µg/mL (≈ 443 µM) in assay [35]; 125 µg/mL (≈ 443 µM) in [21]; 250 µg/mL (≈ 886 µM) in [22]; 125 µg/mL (≈ 443 µM) in assay [23]. Besides, the minimal inhibitory concentration (MIC) in [24] and in assay [25] was 250 µg/mL (≈ 886 µM) in each case.

Compound `Cn1c(=O)c(C(CCCOC(=O)c2cccs2)CC(F)(F)F)nc2ccccc21` (stereo not drawn) gave an Activity in [36] of 23%. In assay [37], the “diameter of the inhibition zone (DIZ)” value is recorded as 47 mm.

On to `C/C(=N\NC(=O)Cn1c(=O)c(C)nc2ccccc21)c1ccc(N)cc1`, for which the minimal inhibitory concentration (MIC) in assay [1] was determined as 125 µg/mL (≈ 358 µM); in assay [2] it was 125 µg/mL (≈ 358 µM); in assay [3], 16.1 µg/mL (≈ 46 µM); in assay [4] it was 16.1 µg/mL (≈ 46 µM); in [5], 125 µg/mL (≈ 358 µM); in [6], 1 µg/mL (≈ 2.86 µM). Also, the lowest concentration to inhibit growth in assay [7] (MIC) was 25 µg/mL (≈ 71.6 µM).

As for `Cc1ccc(S(=O)(=O)NCCCC(CC(F)(F)F)c2nc3ccccc3n(C)c2=O)cc1` (stereo not drawn), in assay [36], the Activity was determined as 23%. In assay [37], the “diameter of the inhibition zone (DIZ)” value amounted to 47 mm.

With `CSCCc1nc2ccc(N3C(=O)CSC3c3ccc(F)cc3)cc2[nH]c1=O` (stereo not drawn), the MBC came to 70.3 µM (≈ 29.2 µg/mL) in assay [38]; 46.8 µM (≈ 19.4 µg/mL) in assay [1]; 23.4 µM (≈ 9.72 µg/mL) in assay [2]; 35.1 µM (≈ 14.6 µg/mL) in assay [3]; 11.7 µM (≈ 4.86 µg/mL) in assay [5]; 93.7 µM (≈ 38.9 µg/mL) in assay [39]. Further, the half-maximal inhibitory concentration (IC50) in [34] amounted to 156 µM.

Take `O=c1[nH]c2cc(F)c(F)cc2nc1CBr`: the minimal inhibitory concentration (MIC) in assay [2] was found to be 125 µg/mL (≈ 454 µM); in [3] it was 31.2 µg/mL (≈ 113 µM); in assay [20] it was 62.5 µg/mL (≈ 227 µM); in [35] it was 125 µg/mL (≈ 454 µM); in assay [21], 500 µg/mL (≈ 1820 µM); in [22], 125 µg/mL (≈ 454 µM). Besides, the MIC in [23] stood at 62.5 µg/mL (≈ 227 µM); in assay [24] it was 500 µg/mL (≈ 1820 µM); in [25], 125 µg/mL (≈ 454 µM).
